Measured values reported in US7273863B1, “Benzophenones as inhibitors of reverse transcriptase” (SmithKline Beecham Corporation, priority 1999, dated 2007).

What was measured:
Assay type in all cases: cell-based
NEV-R = assay: MT4 cell assay, antiviral HIV activity (propidium iodide); conditions: Human immunodeficiency virus 1, MT4, read-out: IC50 (nM) Range
[1] = system: isogenic HIV-1 RT mutant virus G190A; assay: HeLa cell assay (HIV-LTR β-galactosidase reporter); conditions: Human immunodeficiency virus 1, HeLa, read-out: IC50 (nM) Range
Procedure: (§1) The HeLa cell assay was performed according to a modification of Kimpton J. and Emerman M., Detection of replication-competent and pseudotyped human immunodeficiency virus with a sensitive cell line on the basis of activation of an integrated β-galactosidase gene, J. Virol. 66:2232-2239 (1992), in which HIV-1 infection is detected by the activation of an HIV-LTR driven β-galactosidase reporter that is integrated into the genome of a CD4^+ HeLa cell line. Quantitation of β-galactosidase is achieved by measuring the activation of a chemiluminescent substrate (Tropix). The concentration of each compound required to inhibit 50% (IC50) of the HIV-1 induced β-galactosidase signal, relative to untreated controls, was determined for each isogenic, recombinant virus.
(§2) HeLa-CD4-LTR-β-gal cells were obtained from the NIH AIDS Research and Reference Reagent Program. Cells were propagated in DMEM containing 10% fetal bovine serum, 0.2 mg/ml geneticin and 0.1 mg/ml hygromycin B. Cells were routinely split by trypsinization when confluency reached 80% (approximately every 2 to 3 days).
(§3) DNA encoding the HIV-1 reverse transcriptase was subcloned from a M13 phage into a general shuttle vector, pBCSK+, as a ˜1.65 kbp EcoRI/HindIII ended DNA fragment. The HIV DNA insert of the resulting plasmid, pRT2, was completely sequenced on both strands prior to use in site directed mutagenesis experiments. Specific amino acid replacements were made using Stratagene Quick Change reagents and mutagenic oligonucleotides from Oligos. Following mutagenesis, the entire mutant RT coding sequence was verified by sequencing both DNA strands.
(§4) Mutant HIV-1 strains were isolated by a modified Recombinant Virus Assay (Kellam P. and Larder B., Recombinant virus assay: a rapid, phenotypic assay for assessment of drug susceptibility of human immunodeficiency virus type 1 isolates, Antimicrobial Agents and Chemotherapy, 38:23-30, 1994). 1×10^7 Jurkat T-cells (maintained in RPMI containing 10% fetal bovine serum, split 1:5 every 5 to 6 days) were co-transfected with EcoRI/HindIII digested mutant RT plasmid and Bst EII-digested HIV-1HXB2ΔRT DNA in the presence of DMRIE-C transfection reagent (Gibco) according to supplier's recommended protocol. Each mutant RT coding sequence was crossed into the RT-deleted HIV-1 viral DNA backbone by in vivo homologous recombination. Transfected cell cultures were expanded and monitored until syncitia formation and CPE were extensive. Virus was harvested by clear spin of the culture supernatants and frozen at −80 C as primary stock. Recombinant progeny virus was sequenced in the RT region to confirm the mutant genotype. Virus stocks were further expanded by infection of Jurkat cells, harvested and stored as frozen aliquots. Stocks were titered in HeLa MAGI cells for assay.
(§5) The HIV-1HXB2 mutants were titered in the HeLa MAGI assay system to determine the relative light units (RLU) per ml, a measure of infectivity relevant for this assay system. Virus stocks were diluted in a 2-fold series into DMEM containing 10% fetal bovine serum plus 20 ug/ml DEAE-dextran and assayed as described in the Experimental Protocol section, below.
(§6) 96-well microtiter plate(s) (Costar #3598) were seeded with 3×10^3 HeLa-CD4-LTR-β-gal in 100 μl DMEM containing 10% fetal bovine serum. Plates were placed in a 37° C., 5% CO2 humidified incubator overnight. The following day, mutant virus stocks were thawed in a room temperature water bath and diluted into DMEM containing 10% fetal bovine serum and 20 μg/ml DEAE-dextran to achieve an input of 1500 to 2000 RLU/ml. All media was removed with an 8 channel manifold aspirator and 35 μl (50 to 70 total RLUs) of diluted virus was added to each well for virus adsorption. Plates were placed in a 37° C., 5% CO2 humidified incubator for 1.5 to 2 hours.
(§7) Compound titration plates were prepared at 1.35× final concentration during the virus adsorption period. […]

[2] = system: isogenic HIV-1 RT mutant virus K103N/G190A; assay: HeLa cell assay (HIV-LTR β-galactosidase reporter); conditions: Human immunodeficiency virus 1, HeLa, read-out: IC50 (nM) Range
Procedure: as §1, §2, §3, §4, §5, §6, §7

[3] = system: isogenic HIV-1 RT mutant virus K103N/P225H; assay: HeLa cell assay (HIV-LTR β-galactosidase reporter); conditions: Human immunodeficiency virus 1, HeLa, read-out: IC50 (nM) Range
Procedure: as §1, §2, §3, §4, §5, §6, §7

[4] = system: isogenic HIV-1 RT mutant virus K103N/V108I; assay: HeLa cell assay (HIV-LTR β-galactosidase reporter); conditions: Human immunodeficiency virus 1, HeLa, read-out: IC50 (nM) Range
Procedure: as §1, §2, §3, §4, §5, §6, §7

[5] = system: isogenic HIV-1 RT mutant virus K103N/Y181C; assay: HeLa cell assay (HIV-LTR β-galactosidase reporter); conditions: Human immunodeficiency virus 1, HeLa, read-out: IC50 (nM) Range
Procedure: as §1, §2, §3, §4, §5, §6, §7

[6] = system: isogenic HIV-1 RT mutant virus K103N; assay: HeLa cell assay (HIV-LTR β-galactosidase reporter); conditions: Human immunodeficiency virus 1, HeLa, read-out: IC50 (nM) Range
Procedure: as §1, §2, §3, §4, §5, §6, §7

[7] = system: isogenic HIV-1 RT mutant virus L100I; assay: HeLa cell assay (HIV-LTR β-galactosidase reporter); conditions: Human immunodeficiency virus 1, HeLa, read-out: IC50 (nM) Range
Procedure: as §1, §2, §3, §4, §5, §6, §7

[8] = system: isogenic HIV-1 RT mutant virus P225H; assay: HeLa cell assay (HIV-LTR β-galactosidase reporter); conditions: Human immunodeficiency virus 1, HeLa, read-out: IC50 (nM) Range
Procedure: as §1, §2, §3, §4, §5, §6, §7

[9] = system: isogenic HIV-1 RT mutant virus P236L; assay: HeLa cell assay (HIV-LTR β-galactosidase reporter); conditions: Human immunodeficiency virus 1, HeLa, read-out: IC50 (nM) Range
Procedure: as §1, §2, §3, §4, §5, §6, §7

[10] = system: isogenic HIV-1 RT mutant virus V106A/Y181C; assay: HeLa cell assay (HIV-LTR β-galactosidase reporter); conditions: Human immunodeficiency virus 1, HeLa, read-out: IC50 (nM) Range
Procedure: as §1, §2, §3, §4, §5, §6, §7

[11] = system: isogenic HIV-1 RT mutant virus V106I/Y181C; assay: HeLa cell assay (HIV-LTR β-galactosidase reporter); conditions: Human immunodeficiency virus 1, HeLa, read-out: IC50 (nM) Range
Procedure: as §1, §2, §3, §4, §5, §6, §7

[12] = system: isogenic HIV-1 RT mutant virus V106I; assay: HeLa cell assay (HIV-LTR β-galactosidase reporter); conditions: Human immunodeficiency virus 1, HeLa, read-out: IC50 (nM) Range
Procedure: as §1, §2, §3, §4, §5, §6, §7

[13] = system: isogenic HIV-1 RT mutant virus V108I/Y181C; assay: HeLa cell assay (HIV-LTR β-galactosidase reporter); conditions: Human immunodeficiency virus 1, HeLa, read-out: IC50 (nM) Range
Procedure: as §1, §2, §3, §4, §5, §6, §7

[14] = system: isogenic HIV-1 RT mutant virus V108I; assay: HeLa cell assay (HIV-LTR β-galactosidase reporter); conditions: Human immunodeficiency virus 1, HeLa, read-out: IC50 (nM) Range
Procedure: as §1, §2, §3, §4, §5, §6, §7

[15] = system: isogenic HIV-1 RT mutant virus Y181C; assay: HeLa cell assay (HIV-LTR β-galactosidase reporter); conditions: Human immunodeficiency virus 1, HeLa, read-out: IC50 (nM) Range
Procedure: as §1, §2, §3, §4, §5, §6, §7

Row | SMILES | IC50 (NEV-R) | IC50 [1] | IC50 [2] | IC50 [3] | IC50 [4] | IC50 [5] | IC50 [6] | IC50 [7] | IC50 [8] | IC50 [9] | IC50 [10] | IC50 [11] | IC50 [12] | IC50 [13] | IC50 [14] | IC50 [15]
1 | Cc1cc(S(N)(=O)=O)ccc1NC(=O)COc1ccc(Cl)cc1C(=O)c1cc(F)cc(C#N)c1 [Compound 491] | < 10 nM | < 10 nM | 11 to 100 nM | < 10 nM | < 10 nM | < 10 nM | < 10 nM | < 10 nM | < 10 nM | < 10 nM | < 10 nM | 11 to 100 nM | < 10 nM | < 10 nM | < 10 nM | < 10 nM
2 | Cc1cc(C#N)cc(C(=O)c2cc(Cl)ccc2OCC(=O)Nc2ccc(S(N)(=O)=O)nc2C)c1 [Compound 503] | < 10 nM | < 10 nM | < 10 nM | < 10 nM | < 10 nM | < 10 nM | < 10 nM | < 10 nM | < 10 nM | < 10 nM | < 10 nM | < 10 nM | < 10 nM | < 10 nM | < 10 nM | < 10 nM
3 | Cc1cc(S(N)(=O)=O)ccc1NC(=O)COc1ccc(Cl)cc1C(=O)c1cc(Cl)cc(C#N)c1 [Compound 475] | < 10 nM | < 10 nM | < 10 nM | < 10 nM | < 10 nM | < 10 nM | < 10 nM | < 10 nM | < 10 nM | < 10 nM | < 10 nM | 11 to 100 nM | < 10 nM | < 10 nM | < 10 nM | < 10 nM
